Read-outs that look alike come from different tables or passages of the source. One block for each compound: values may come before it.
Key:
[1] = biological target: T1, SULT1A1 (Homo sapiens, UniProt P50225); type: binding
[2] = cited from earlier work
[3] = biological target: T1, SULT1A1; test: Presteady state; type: binding
[4] = biological target: T1, SULT1A1; test: 35S-PAPS test whether EGCG is a substrate; type: biochemical
[5] = biological target: T2, SULT2A1 (Homo sapiens, UniProt Q06520); test: 35S-PAPS test whether EGCG is a substrate; type: biochemical
T2 sequence (Q06520 1-285): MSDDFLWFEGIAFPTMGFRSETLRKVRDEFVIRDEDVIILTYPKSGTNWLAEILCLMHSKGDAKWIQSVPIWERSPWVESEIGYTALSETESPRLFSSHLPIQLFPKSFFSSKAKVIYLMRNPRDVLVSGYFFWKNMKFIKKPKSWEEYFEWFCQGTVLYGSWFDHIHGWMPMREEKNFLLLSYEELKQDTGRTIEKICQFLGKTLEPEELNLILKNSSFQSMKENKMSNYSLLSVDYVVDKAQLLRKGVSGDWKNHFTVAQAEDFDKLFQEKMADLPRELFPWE

[6] = biological target: T1, SULT1A1; details: SULT1A1 isoform; cited from earlier work
[7] = biological target: T1, SULT1A1; details: cited from earlier work; for second molecule binds more weakly than the first: unliganded SULT1A1 dimer
[8] = biological target: T1, SULT1A1; details: PAP, cited from earlier work
[9] = biological target: T1, SULT1A1; details: PAPS 100 μM, NaPO4 50 mM, pH 7.2, 25 °C
[10] = read-out: Kd of acceptor, enzyme form E·(EGCG)2
[11] = EGCG binding to E·(PAP)2, two-step model
[12] = EGCG, enzyme species E·PAP·EGCG

T1 sequence (P50225 whole entry): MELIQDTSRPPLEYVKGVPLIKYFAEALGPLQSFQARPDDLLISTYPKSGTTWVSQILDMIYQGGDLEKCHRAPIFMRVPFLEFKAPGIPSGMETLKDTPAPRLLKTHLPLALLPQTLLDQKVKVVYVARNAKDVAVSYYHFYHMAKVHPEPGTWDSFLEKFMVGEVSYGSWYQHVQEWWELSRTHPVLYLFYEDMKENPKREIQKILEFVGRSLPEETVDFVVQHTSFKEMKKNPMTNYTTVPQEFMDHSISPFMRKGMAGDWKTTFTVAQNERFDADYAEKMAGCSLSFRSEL

Compound: C[C@]12CC[C@@H]3c4ccc(O)cc4CC[C@H]3[C@@H]1CC[C@@H]2O [E2, 17-β-estradiol]
- Kd [1]: 1000 nM
- decrease of acceptor affinity when EGCG binds to E·(PAP)2 [1]: not affected
- Kd [1, 10]: 1000 nM
- Kd ([1]; read-out: Kd of acceptor, enzyme form E·(PAP)2): 1000 nM
- Kd ([1]; read-out: Kd of acceptor, enzyme form E·(PAP)2·(EGCG)2): 1000 nM

- affinity of EGCG for E·PAP relative to its affinity for E [1]: 15 fold
- EGCG binding stoichiometry ([1]; E·(PAP)2): 1.0 EGCG/subunit
- EGCG binding stoichiometry ([1]; E·PAP, PAP-containing subunit (high-affinity site)): 1.0 per dimer
- EGCG binds more tightly to cap-closed (nucleotide-bound) form ([1]; cap closed vs open): 17 fold
- EGCG-binding stoichiometry ([1]; ligand-free enzyme, [SULT1A1] = 15 Kd): 1.0 per subunit
- Kd ([1]; read-out: Kd EGCG, enzyme form E (ligand-free), allosteric site): 680 nM
- Kd ([1]; read-out: Kd EGCG, enzyme form E·(PAP)2): 39 nM
- Kd ([1]; read-out: Kd EGCG, enzyme form E·EGCGPAP): 810 nM
- Kd ([1]; read-out: Kd EGCG, enzyme form E·PAP): 44 nM
- Kiso for the cap of the high-affinity subunit in the E·(EGCG)2 complex ([3]; 21 × 18): 378
- kfor, binding step [3, 11]: 9.9 (0.6) × 10^6M^−1s^−1
- kfor, isomerization step (cap closure) [3, 11]: 172 s⁻¹
- krev, binding step [3, 11]: 6.5 s⁻¹
- krev, isomerization step [3, 11]: 10 s⁻¹
- koff ([3]; EGCG, enzyme species E): 6.9 (0.2) s^−1
- kon ([3]; EGCG, enzyme species E): 9.8 (0.3)^a μM^−1s^−1
- koff ([3]; EGCG, enzyme species E·PAP): 0.62 (0.03) s^−1
- kon ([3]; EGCG, enzyme species E·PAP): 13.5 (0.7) μM^−1s^−1
- koff [3, 12]: 13.9 (0.2) s^−1
- kon [3, 12]: 17.1 (0.3) μM^−1s^−1
- Kiso, isomerization equilibrium constant ([3]; EGCG-bound E·(PAP)2): 17
- Kd ([3]; read-out: Kd (koff/Kon), EGCG, enzyme species E): 710 nM
- Kd ([3]; read-out: Kd (koff/Kon), EGCG, enzyme species E·PAP): 46 nM
- Kd ([3]; read-out: Kd (koff/Kon), EGCG, enzyme species E·PAP·EGCG): 810 nM
- sulfonation of EGCG ([4]; SULT1A1 30 μM, EGCG 250 μM, 35S-PAPS 0.30 μM, over 30 min): not detected
- turnover of EGCG ([4]; from lower detection limit ~5 % of PAPS conversion over 30 min): less than 0.16 % min^−1
- EGCG converted to product ([5]; EGCG 30 μM, 35S-PAPS 30 μM, SULT2A1 0.50 μM dimer, in 2 min): 12%
- PAPS converted to sulfonated EGCG ([5]; SULT2A1 30 μM, EGCG 250 μM, 35S-PAPS 0.30 μM, in 1.0 min): Thirty-four
Compound: O=C(O[C@@H]1Cc2c(O)cc(O)cc2O[C@@H]1c1cc(O)c(O)c(O)c1)c1cc(O)c(O)c(O)c1 [EGCG, epigallocatechin gallate]
- concentration of EGCG in human plasma [2]: ~ 0.4 μ
- Ki [6]: 34 nM

- decrease in the affinity of the second nucleotide caused by binding of the first ([1]; E·(EGCG)2 complex): 33 fold
- Kd ([1]; Kd PAP, enzyme form E·(EGCG)2 (high-affinity site)): 24 nM
- Kd ([1]; Kd PAP, enzyme form E·(EGCG)2PAP (low-affinity site)): 780 nM
- Kd ([1]; Kd PAP, enzyme form E·EGCGPAP): 31000 nM
- increase of PAP affinity at saturating EGCG ([1]; high-affinity site): 15 fold
- increase of PAP affinity at saturating EGCG ([1]; low-affinity site): 40 fold
- koff for PAP departure from the high affinity site of E·(EGCG)2, fold less than that from E [3]: 18 fold
- Kd ([3]; Kd (koff/Kon), PAP, enzyme species E·(EGCG)2): 22 nM
- Kd ([3]; Kd (koff/Kon), PAP, enzyme species E·(EGCG)2·PAP): 880 nM
- kon ([3]; PAP, enzyme species E·(EGCG)2 (high-affinity site)): 1.7e+06 M⁻¹ s⁻¹
- koff ([3]; PAP, enzyme species E·(EGCG)2 (high-affinity site), saturating EGCG): 0.038 s⁻¹
- koff ([3]; PAP, enzyme species E·(EGCG)2·PAP): 0.77 s⁻¹
- kon ([3]; PAP, enzyme species E·(EGCG)2·PAP (low-affinity site)): 880000 M⁻¹ s⁻¹
Compound: Nc1ncnc2c1ncn2[C@@H]1O[C@H](COP(=O)(O)O)[C@@H](OP(=O)(O)O)[C@H]1O [PAP, 3’, 5’-diphosphoadenosine]
- Kd ([7]; read-out: Kd PAP, enzyme form E): 350 nM
- second molecule binds more weakly than the first [7]: 88 fold
- koff ([8]; enzyme species E): 0.70 (0.05) s^−1
- kon ([8]; enzyme species E): 2.0 (0.1) μM^−1s^−1
- koff ([8]; enzyme species E·PAP): 29 ([1]) s^−1
- kon ([8]; enzyme species E·PAP): 0.96 (0.01) μM^−1s^−1
- Kd ([8]; read-out: Kd (koff/Kon), enzyme species E): 370 nM

Compound: Nc1ncnc2c1ncn2[C@@H]1O[C@H](COP(=O)(O)OS(=O)(=O)O)[C@@H](OP(=O)(O)O)[C@H]1O [PAPS, 3’-phosphoadenosine 5’-phosphosulfate]
- second molecule binds more weakly than the first [7]: 88 fold

Compound: O=[N+]([O-])c1ccc(O)cc1 [PNP, para-nitrophenol]
- kcat ([9]; PNP as acceptor): 60 (± 1.8)
- Ki ([9]; PNP): 6600 nM
- Km ([9]; read-out: Km (PNP)): 1.4 µM

Compound: CC/C(=C(\c1ccc(O)cc1)c1ccc(OCCN(C)C)cc1)c1ccccc1 [TAM, 4-hydroxytamoxifen]
- decrease of acceptor affinity when EGCG binds to E·(PAP)2 [1]: 23 fold
- Kd ([1]; Kd of acceptor, enzyme form E·(PAP)2): 700 nM
- Kd ([1]; Kd of acceptor, enzyme form E·(PAP)2·(EGCG)2): 16000 nM
- Kd ([1]; read-out: Kd of acceptor, enzyme form E): 650 nM
- Kd [1, 10]: 670 nM
